Source: patent US10519134B2, “Pyrazole compounds and methods of making and using same” (Lundbeck La Jolla Research Center, Inc., priority 2015, dated 2019)

Key:
MAGL [1] = molecular target: T1, MAGL (Mus musculus, UniProt O35678); experiment: In vitro competitive activity-based protein profiling (mouse), MAGL gel band; type: biochemical; details: for IC50: mouse; for inhibition at 1 µM: read-out: MAGL % inh. 1 μM
T1 construct: Proteomes (mouse brain membrane fraction or cell lysates); from tissue; host or cells: mouse brain membrane fraction (or cell lysates)
T1 sequence (O35678 1-303): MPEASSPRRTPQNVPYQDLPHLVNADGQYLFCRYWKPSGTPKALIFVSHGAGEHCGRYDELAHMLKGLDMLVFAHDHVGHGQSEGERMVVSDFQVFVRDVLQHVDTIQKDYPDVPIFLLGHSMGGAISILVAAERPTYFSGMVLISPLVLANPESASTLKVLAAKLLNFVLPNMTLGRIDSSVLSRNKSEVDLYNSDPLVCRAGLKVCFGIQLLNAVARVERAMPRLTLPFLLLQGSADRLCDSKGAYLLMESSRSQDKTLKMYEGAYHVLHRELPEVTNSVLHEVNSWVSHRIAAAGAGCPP
Summary of the method: (§1)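 Mouse brain membrane proteome or cell lysate (1.0 mg/mL total protein) was preincubated with varying inhibitor concentrations for 30 min at 37 °C, then labelled for 30 min at 37 °C with FP-Rh or HT-01 (50 μM stock in DMSO). Activity was read as fluorescent band intensity after SDS-PAGE.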

FAAH = molecular target: T2, FAAH (Mus musculus, UniProt O08914); experiment: In vitro competitive activity-based protein profiling (mouse), FAAH gel band; type: biochemical; details: for IC50: mouse; for inhibition at 1 µM: read-out: FAAH % inh. 1 μM
T2 construct: Proteomes (mouse brain membrane fraction or cell lysates); from tissue; host or cells: mouse brain membrane fraction (or cell lysates)
T2 sequence (O08914 1-579): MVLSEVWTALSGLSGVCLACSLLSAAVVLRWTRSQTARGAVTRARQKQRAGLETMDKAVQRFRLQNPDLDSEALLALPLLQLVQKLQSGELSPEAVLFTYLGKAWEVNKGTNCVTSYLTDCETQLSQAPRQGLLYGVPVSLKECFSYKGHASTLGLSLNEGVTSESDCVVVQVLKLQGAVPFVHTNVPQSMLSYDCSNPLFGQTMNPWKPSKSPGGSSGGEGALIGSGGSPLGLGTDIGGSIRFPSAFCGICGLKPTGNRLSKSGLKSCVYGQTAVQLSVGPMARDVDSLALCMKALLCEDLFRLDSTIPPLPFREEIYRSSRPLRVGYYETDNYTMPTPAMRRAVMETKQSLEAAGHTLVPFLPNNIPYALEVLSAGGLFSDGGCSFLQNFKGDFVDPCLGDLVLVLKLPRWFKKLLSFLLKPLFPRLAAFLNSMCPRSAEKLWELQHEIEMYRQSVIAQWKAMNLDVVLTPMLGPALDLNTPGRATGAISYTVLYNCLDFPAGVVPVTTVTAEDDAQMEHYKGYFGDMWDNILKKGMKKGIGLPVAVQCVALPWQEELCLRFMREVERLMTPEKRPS
Summary of the method: as §1

MAGL [2] = molecular target: T1, MAGL; experiment: Mouse brain proteomes from inhibitor treated mice (oral gavage, sacrificed 4 h after administration); type: in vivo; details: read-out: MAGL % inh. 5 mg/kg
Protocol: Compounds are tested to assess their MAGL and other serine hydrolase activity using the following in vitro and in vivo assays.
Preparation of Mouse Brain Proteomes from Inhibitor Treated Mice.
Inhibitors were administered to wild-type C57Bl/6J by oral gavage in a vehicle of polyethylene glycol. Each animal was sacrificed 4 h following administration and brain proteomes were prepared and analyzed according to previously established methods (See Niphakis, M. J., et al. (2011) ACS Chem. Neurosci. and Long, J. Z., et al. Nat. Chem. Biol. 5:37-44)

| SMILES | IC50 (MAGL [1]) [nM] | inhibition at 1 µM (MAGL [1]) [%] | IC50 (FAAH) [nM] | inhibition at 1 µM (FAAH) [%] | inhibition at 5 mg/kg (MAGL [2]) [%] |
| --- | --- | --- | --- | --- | --- |
| CC(=O)Nc1ccn(C(=O)N2CCN(Cc3ccc(Cl)cc3N3CCC4(CC3)CCN(S(C)(=O)=O)C4)CC2)n1 [Example 54, N-(1-(4-(4-chloro-2-(2-(methylsulfonyl)-2,8-diazaspiro[4.5]decan-8-yl)benzyl)piperazine-1-carbonyl)-1H-pyrazol-3-yl)acetamide] | ≤ 100 | ≥ 75 | 1000 to 10000 | 0 to 25 | 0 to 25 |
| CC(=O)Nc1ccn(C(=O)N2CCC3(CCCN3Cc3ccc(C(F)(F)F)c(N4CCOCC4)c3)CC2)n1 [Example 105, N-(1-(1-(3-morpholino-4-(trifluoromethyl)benzyl)-1,8-diazaspiro[4.5]decane-8-carbonyl)-1H-pyrazol-3-yl)acetamide] | ≤ 100 | ≥ 75 | 1000 to 10000 | 0 to 25 | 25 to 50 |
| CCN1CCN(c2cc(C(F)(F)F)ccc2CN2CCCC23CCN(C(=O)n2ccc(NC(C)=O)n2)CC3)CC1 [Example 31, N-(1-(1-(2-(4-ethylpiperazin-1-yl)-4-(trifluoromethyl)benzyl)-1,8-diazaspiro[4.5]decane-8-carbonyl)-1H-pyrazol-3-yl)acetamide] | 100 to 1000 | ≥ 75 | 1000 to 10000 | 0 to 25 | 25 to 50 |
| CC(=O)Nc1ccn(C(=O)N2CCC3(CCCN3Cc3ccc(C(N)=O)c(C(F)(F)F)c3)CC2)n1 [Example 109, 4-((8-(3-acetamido-1H-pyrazole-1-carbonyl)-1,8-diazaspiro[4.5]decan-1-yl)methyl)-2-(trifluoromethyl)benzamide] | ≤ 100 | ≥ 75 | 1000 to 10000 | 0 to 25 | 0 to 25 |
| CC(=O)Nc1ccn(C(=O)N2CCC3(CCCN3Cc3cc(Cl)cc(N4CCCC4)c3)CC2)n1 [Example 63, N-(1-(1-(3-chloro-5-(pyrrolidin-1-yl)benzyl)-1,8-diazaspiro[4.5]decane-8-carbonyl)-1H-pyrazol-3-yl)acetamide] | ≤ 100 | ≥ 75 | 1000 to 10000 | 0 to 25 | 25 to 50 |
| CC(=O)Nc1ccn(C(=O)N2CCN(Cc3ccc(C(F)(F)F)cc3N3CCC4(C3)CN(S(C)(=O)=O)C4)CC2)n1 [Example 44, N-(1-(4-(2-(2-(methylsulfonyl)-2,6-diazaspiro[3.4]octan-6-yl)-4-(trifluoromethyl)benzyl)piperazine-1-carbonyl)-1H-pyrazol-3-yl)acetamide] | ≤ 100 | ≥ 75 | 1000 to 10000 | 0 to 25 | 0 to 25 |
| [2H]C([2H])([2H])C(=O)Nc1ccn(C(=O)N2CCC3(CCCN3Cc3ccc(Cl)c(C)c3)CC2)n1 [Example 286, N-(1-(1-(4-chloro-3-methylbenzyl)-1,8-diazaspiro[4.5]decane-8-carbonyl)-1H-pyrazol-3-yl)acetamide-2,2,2-d3] |  | ≥ 75 |  | 0 to 25 | ≥ 75 |
| CC(=O)Nc1ccn(C(=O)N2CCC3(CCCN3Cc3ccc(C(F)(F)F)cc3Oc3nc4ccccc4s3)CC2)n1 [Example 85, N-(1-(1-(2-(benzo[d]thiazol-2-yloxy)-4-(trifluoromethyl)benzyl)-1,8-diazaspiro[4.5]decane-8-carbonyl)-1H-pyrazol-3-yl)acetamide] | ≤ 100 | ≥ 75 | 1000 to 10000 | 0 to 25 | 0 to 25 |
| CC(=O)Nc1ccn(C(=O)N2CCN(Cc3ccc(Cl)cc3N3CCC4(C3)CN(S(C)(=O)=O)C4)CC2)n1 [Example 55, N-(1-(4-(4-chloro-2-(2-(methylsulfonyl)-2,6-diazaspiro[3.4]octan-6-yl)benzyl)piperazine-1-carbonyl)-1H-pyrazol-3-yl)acetamide] | ≤ 100 | ≥ 75 | 1000 to 10000 | 0 to 25 | 0 to 25 |
| CC(=O)Nc1ccn(C(=O)N2CCC3(CCCN3Cc3ccc(Cl)cc3N3CCC4(CCOCC4)C3)CC2)n1 [Example 9, N-(1-(1-(4-chloro-2-(8-oxa-2-azaspiro[4.5]decan-2-yl)benzyl)-1,8-diazaspiro[4.5]decane-8-carbonyl)-1H-pyrazol-3-yl)acetamide] | ≤ 100 | ≥ 75 | 1000 to 10000 | 0 to 25 | 0 to 25 |
| CC(=O)Nc1ccn(C(=O)N2CCN(Cc3ccc(Cl)cc3N3CCOCC3)CC2)n1 [Example 6, N-(1-(4-(4-chloro-2-morpholinobenzyl)piperazine-1-carbonyl)-1H-pyrazol-3-yl)acetamide] | ≤ 100 | ≥ 75 | 1000 to 10000 | 0 to 25 | 25 to 50 |
| CC(=O)Nc1ccn(C(=O)N2CCC3(CCCN3Cc3ccc(N4CCOCC4)c(C(F)(F)F)c3)CC2)n1 [Example 101, N-(1-(1-(4-morpholino-3-(trifluoromethyl)benzyl)-1,8-diazaspiro[4.5]decane-8-carbonyl)-1H-pyrazol-3-yl)acetamide] | ≤ 100 | ≥ 75 | 1000 to 10000 | 0 to 25 | 25 to 50 |
| CC(=O)Nc1ccn(C(=O)N2CCC3(CCCN3Cc3ccc(C(F)(F)F)cc3N3CCOCC3)CC2)n1 [Example 10, N-(1-(1-(2-morpholino-4-(trifluoromethyl)benzyl)-1,8-diazaspiro[4.5]decane-8-carbonyl)-1H-pyrazol-3-yl)acetamide] | ≤ 100 | ≥ 75 | 1000 to 10000 | 0 to 25 | 0 to 25 |
| CC(=O)Nc1ccn(C(=O)N2CCC3(CCCN3Cc3ccc(Cl)cc3N3CC4CCC(C3)O4)CC2)n1 [Example 34, N-(1-(1-(2-(8-oxa-3-azabicyclo[3.2.1]octan-3-yl)-4-chlorobenzyl)-1,8-diazaspiro[4.5]decane-8-carbonyl)-1H-pyrazol-3-yl)acetamide] | ≤ 100 | ≥ 75 | 1000 to 10000 | 0 to 25 | 0 to 25 |
| CC(=O)Nc1ccn(C(=O)N2CCC3(CCCN3Cc3ccc(Cl)c(N4CCCC4)c3)CC2)n1 [Example 104, N-(1-(1-(4-chloro-3-(pyrrolidin-1-yl)benzyl)-1,8-diazaspiro[4.5]decane-8-carbonyl)-1H-pyrazol-3-yl)acetamide] | ≤ 100 | ≥ 75 | 1000 to 10000 | 0 to 25 | 0 to 25 |
| CC(=O)Nc1ccn(C(=O)N2CCN(Cc3ccc(Cl)cc3N3CC4COCC4C3)CC2)n1 (stereo not shown) [Example 60, N-(1-(4-(4-chloro-2-(dihydro-1H-furo[3,4-c]pyrrol-5(3H,6H,6aH)-yl)benzyl)piperazine-1-carbonyl)-1H-pyrazol-3-yl)acetamide] | ≤ 100 | ≥ 75 | 1000 to 10000 | 0 to 25 | 0 to 25 |
| CC(=O)Nc1ccn(C(=O)N2CCC3(CCCN3Cc3ccc(C(F)(F)F)cc3N3CC4COCC4C3)CC2)n1 (stereo not shown) [Example 32, N-(1-(1-(2-(dihydro-1H-furo[3,4-c]pyrrol-5(3H,6H,6aH)-yl)-4-(trifluoromethyl)benzyl)-1,8-diazaspiro[4.5]decane-8-carbonyl)-1H-pyrazol-3-yl)acetamide] | ≤ 100 | ≥ 75 | 1000 to 10000 | 0 to 25 | 25 to 50 |
| CC(=O)Nc1ccn(C(=O)N2CCN(Cc3cc(OC4CCN(C5CC5)CC4)cc(C(F)(F)F)c3)CC2)n1 [Example 72, N-(1-(4-(3-(1-cyclopropylpiperidin-4-yloxy)-5-(trifluoromethyl)benzyl)piperazine-1-carbonyl)-1H-pyrazol-3-yl)acetamide] | ≤ 100 | ≥ 75 | 1000 to 10000 | 0 to 25 | 0 to 25 |
